Test results reported in patent US10258639B2, “Methods for treating insulin resistance and for sensitizing patients to GLP1 agonist therapy” (Research Development Foundation, priority 2014, dated 2019).

Test system: INS1 cells
Experiment: RNAseq of INS1 cells grown in chronic high glucose compared to controls and stimulated with FSK (Table 2)
Format: cell-based, rat
Settings: Low glucose
Method: INS-1 insulinoma cells were cultured in RPMI (corning cellgro) containing 10% fetal bovine serum (Gemini Bio Products), 100 μg/mL penicillin-streptomycin and 1 mM sodium pyruvate (corning cellgro). MIN6 cells were grown in DMEM (corning cellgro) with 10% FBS, 100 μg/mL penicillin-streptomycin and 70 uM beta-mercaptoethanol. For chronic glucose experiments, cells were maintained under low (2.8 mM) or high (20 mM) glucose for 3 days. Exendin-4 (10 nM), Forskolin (10 μM), KCl (40 mM), DMOG (1 mM) and rapamycin (50 nM) were added to cells as indicated. Cellular cAMP levels were measured using an ELISA kit (Cayman Chemical Company) according to manufacturer's instructions. Total RNAs from cells or primary islets were extracted using Trizol and cDNA was generated using the Transcriptor First Strand cDNA Synthesis kit (Roche Applied Science). cDNAs were quantified on a lightcycler 480 instrument (Roche Applied Science). Gene expression data were presented relative to the expression of housekeeping gene L32 (rat samples) and 18S (mouse and human islets). RNA-Seq libraries were prepared using the mRNA isolation protocol and the NEBNext-Ultra kits from New England Biolabs following the manufacturer's protocols. Libraries were quantitated by Qubit (Invitrogen), and run on a MiSeq instrument with paired-end 75 bp reads using v3 chemistry (Illumina) Data were analyzed by tophat2 and cuffdiff against the mouse mm10 genome build. The GEO accession number for RNAseq studies reported in the paper is GSE60158.

C=C[C@@]1(C)CC(=O)[C@]2(O)[C@@]3(C)[C@@H](O)CCC(C)(C)[C@@H]3[C@H](O)[C@H](OC(C)=O)[C@@]2(C)O1 [FSK, Forskolin]
Agt RNAseq value (FSK): 5.2
Ahi1 RNAseq value (FSK): 32.6
Bhlha15 RNAseq value (FSK): 63.9
Btg3 RNAseq value (FSK): 145.9
Bysl RNAseq value (FSK): 56.1
Canx RNAseq value (FSK): 241.6
Ccni RNAseq value (FSK): 242.1
Chd1 RNAseq value (FSK): 20.8
Chrne RNAseq value (FSK): 0.2
Ctf1 RNAseq value (FSK): 0.2
Cxcl2 RNAseq value (FSK): 1.0
Cyth3 RNAseq value (FSK): 30.7
Dkc1 RNAseq value (FSK): 87.8
Epha3 RNAseq value (FSK): 0.1
Epor RNAseq value (FSK): 0.2
Fam49a RNAseq value (FSK): 0.2
Ficd RNAseq value (FSK): 89.9
Fmc1 RNAseq value (FSK): 26.0
Fn1 RNAseq value (FSK): 852.9
Gabre RNAseq value (FSK): 0.1
Gars RNAseq value (FSK): 439.6
Ggt5 RNAseq value (FSK): 0.3
Gnl3 RNAseq value (FSK): 31.0
Gnmt RNAseq value (FSK): 0.4
Gzmm RNAseq value (FSK): 0.4
Hmcn1 RNAseq value (FSK): 0.0
Hmga2 RNAseq value (FSK): 0.5
Hnrnpa1 RNAseq value (FSK): 34.2
Hnrpdl RNAseq value (FSK): 160.1
Hs3st2 RNAseq value (FSK): 0.6
Hspa4 RNAseq value (FSK): 138.6
Hspd1 RNAseq value (FSK): 47.6
Icam2 RNAseq value (FSK): 0.2
Il13ra1 RNAseq value (FSK): 0.3
Il28ra RNAseq value (FSK): 10.0
Kcnb1 RNAseq value (FSK): 48.7
Kcnj13 RNAseq value (FSK): 1.4
Kdm1b RNAseq value (FSK): 9.1
Kif9 RNAseq value (FSK): 0.3
LOC683722 RNAseq value (FSK): 12.3
LOC686295 RNAseq value (FSK): 4.9
LOC689959 RNAseq value (FSK): 17.9
Lrfn5 RNAseq value (FSK): 0.1
Map3k4 RNAseq value (FSK): 25.4
Mef2d RNAseq value (FSK): 146.0
Megf10 RNAseq value (FSK): 0.1
Msn RNAseq value (FSK): 1.2
Myof RNAseq value (FSK): 0.0
Nckap1l RNAseq value (FSK): 0.2
Nkx2-2 RNAseq value (FSK): 192.1
Nolc1 RNAseq value (FSK): 183.8
Notch4 RNAseq value (FSK): 0.9
Ormdl3 RNAseq value (FSK): 286.8
Otop3 RNAseq value (FSK): 0.1
Pabpc6 RNAseq value (FSK): 0.1
Pde3b RNAseq value (FSK): 103.8
Pde4dip RNAseq value (FSK): 61.8
Pdrg1 RNAseq value (FSK): 43.4
Plcb2 RNAseq value (FSK): 0.1
RGD1309079 RNAseq value (FSK): 1.1
RGD1311084 RNAseq value (FSK): 0.2
Rab3gap2 RNAseq value (FSK): 53.1
Rab11fip1 RNAseq value (FSK): 11.0
Rap2a RNAseq value (FSK): 13.5
Rho RNAseq value (FSK): 0.2
Rpl7a RNAseq value (FSK): 0.4
Rpl17 RNAseq value (FSK): 117.5
Rrs1 RNAseq value (FSK): 38.4
Sgce RNAseq value (FSK): 0.2
Smad1 RNAseq value (FSK): 48.4
Smad3 RNAseq value (FSK): 5.7
Snapc1 RNAseq value (FSK): 4.6
Sncaip RNAseq value (FSK): 7.4
Spon2 RNAseq value (FSK): 0.7
Srp54 RNAseq value (FSK): 40.0
Stard8 RNAseq value (FSK): 0.3
Syp RNAseq value (FSK): 744.1
T2 RNAseq value (FSK): 0.2
Taf1a RNAseq value (FSK): 9.0
Tex38 RNAseq value (FSK): 0.5
Tmem114 RNAseq value (FSK): 0.2
Tomm20 RNAseq value (FSK): 90.1
Tpp2 RNAseq value (FSK): 12.0
Twistnb RNAseq value (FSK): 8.1
Usp9x RNAseq value (FSK): 56.0
Vps37b RNAseq value (FSK): 52.0
Zfp830 RNAseq value (FSK): 20.4
Zfp385d RNAseq value (FSK): 0.2
Accsl Fold (FSK/control): 2.0
Acpt Fold (FSK/control): 2.0
Acsl4 Fold (FSK/control): 2.0
Agt Fold (FSK/control): 2.0
Ahi1 Fold (FSK/control): 2.0
Bhlha15 Fold (FSK/control): 2.0
Btg3 Fold (FSK/control): 2.0
Bysl Fold (FSK/control): 2.0
Canx Fold (FSK/control): 2.0
Ccni Fold (FSK/control): 2.0
Chd1 Fold (FSK/control): 2.0
Chrne Fold (FSK/control): 2.0
Ctf1 Fold (FSK/control): 2.0
Cxcl2 Fold (FSK/control): 2.0
Cyth3 Fold (FSK/control): 2.0
Dkc1 Fold (FSK/control): 2.0
Epha3 Fold (FSK/control): 2.0
Epor Fold (FSK/control): 2.0
Fam49a Fold (FSK/control): 2.0
Ficd Fold (FSK/control): 2.0
Fmc1 Fold (FSK/control): 2.0
Fn1 Fold (FSK/control): 2.0
Gabre Fold (FSK/control): 2.0
Gars Fold (FSK/control): 2.0
Ggt5 Fold (FSK/control): 2.0
Gnl3 Fold (FSK/control): 2.0
Gnmt Fold (FSK/control): 2.0
Gzmm Fold (FSK/control): 2.0
Hmcn1 Fold (FSK/control): 2.0
Hmga2 Fold (FSK/control): 2.0
Hnrnpa1 Fold (FSK/control): 2.0
Hnrpdl Fold (FSK/control): 2.0
Hs3st2 Fold (FSK/control): 2.0
Hspa4 Fold (FSK/control): 2.0
Hspd1 Fold (FSK/control): 2.0
Icam2 Fold (FSK/control): 2.0
Il13ra1 Fold (FSK/control): 2.0
Il28ra Fold (FSK/control): 2.0
Kcnb1 Fold (FSK/control): 2.0
Kcnj13 Fold (FSK/control): 2.0
Kdm1b Fold (FSK/control): 2.0
Kif9 Fold (FSK/control): 2.0
LOC683722 Fold (FSK/control): 2.0
LOC686295 Fold (FSK/control): 2.0
LOC689959 Fold (FSK/control): 2.0
Lrfn5 Fold (FSK/control): 2.0
Map3k4 Fold (FSK/control): 2.0
Mef2d Fold (FSK/control): 2.0
Megf10 Fold (FSK/control): 2.0
Msn Fold (FSK/control): 2.0
Myof Fold (FSK/control): 2.0
Nckap1l Fold (FSK/control): 2.0
Nkx2-2 Fold (FSK/control): 2.0
Nolc1 Fold (FSK/control): 2.0
Notch4 Fold (FSK/control): 2.0
Ormdl3 Fold (FSK/control): 2.0
Otop3 Fold (FSK/control): 2.0
Pabpc6 Fold (FSK/control): 2.0
Pde3b Fold (FSK/control): 2.0
Pde4dip Fold (FSK/control): 2.0
Pdrg1 Fold (FSK/control): 2.0
Plcb2 Fold (FSK/control): 2.0
RGD1309079 Fold (FSK/control): 2.0
RGD1311084 Fold (FSK/control): 2.0
Rab3gap2 Fold (FSK/control): 2.0
Rab11fip1 Fold (FSK/control): 2.0
Rap2a Fold (FSK/control): 2.0
Rho Fold (FSK/control): 2.0
Rpl7a Fold (FSK/control): 2.0
Rpl17 Fold (FSK/control): 2.0
Rrs1 Fold (FSK/control): 2.0
Sgce Fold (FSK/control): 2.0
Smad1 Fold (FSK/control): 2.0
Smad3 Fold (FSK/control): 2.0
Snapc1 Fold (FSK/control): 2.0
Sncaip Fold (FSK/control): 2.0
Spon2 Fold (FSK/control): 2.0
Srp54 Fold (FSK/control): 2.0
Stard8 Fold (FSK/control): 2.0
Syp Fold (FSK/control): 2.0
T2 Fold (FSK/control): 2.0
Taf1a Fold (FSK/control): 2.0
Tex38 Fold (FSK/control): 2.0
Tmem114 Fold (FSK/control): 2.0
Tomm20 Fold (FSK/control): 2.0
Tpp2 Fold (FSK/control): 2.0
Twistnb Fold (FSK/control): 2.0
Usp9x Fold (FSK/control): 2.0
Vps37b Fold (FSK/control): 2.0
Zfp830 Fold (FSK/control): 2.0
Zfp385d Fold (FSK/control): 2.0
